From patent publication US20250332300A1 (priority 2024, published 2025)
Starred links: 1 amine or outer side, 2 acyl side, 3 side chain; linkers in the order of their positions; H or OH if unused. Positions of bridges follow the written chain, without caps; N, C: chain ends. Non-standard residues stand in square brackets, D forms with d. Residues, ends and D or L forms follow the SMILES beside them. Trp(5-OH) = N[C@@H](Cc1c[nH]c2ccc(O)cc12)C(=O)O; NMePhe(4-F) = CN[C@@H](Cc1ccc(F)cc1)C(=O)O; NMehPhe = CN[C@@H](CCc1ccccc1)C(=O)O; Aad = N[C@@H](CCCC(=O)O)C(=O)O; Gly(cPr) = N[C@H](C(=O)O)C1CC1; NMeK = CN[C@@H](CCCCN)C(=O)O; NMeDap = CN[C@@H](CN)C(=O)O; NMeC = CN[C@@H](CS)C(=O)O; NMeS = CN[C@@H](CO)C(=O)O; Dap = NC[C@H](N)C(=O)O; X5 = O=C(C[*:2])[*:1]

Experiments:
Type in all cases: binding
human HER2 (23-652) = human HER2 (23-652) (Homo sapiens, UniProt P04626); assay: Surface plasmon resonance (SPR) for assessment of peptide affinity, human HER2; design: towards human HER2 (23-652) and mouse HER2 (23-653); made in house; details: SPR, human HER2 extracellular domain, 25° C., 1:1 binding model; read-out: huHER2-SPR-ONC KD
Method in brief: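 Binding kinetics fitted from sensorgrams with 280 s peptide association then 3000 s dissociation (30 uL/min), using HER2 (23-652) either directly immobilized (SA/CM5) or anti-Fc-captured; 3 M magnesium chloride used for regeneration.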

mouse HER2 (23-653) [1] = biological target: T1, mouse HER2 (23-653) (Mus musculus, UniProt P70424); assay: Surface plasmon resonance (SPR) for assessment of peptide affinity, mouse HER2; design: mouse HER2 (23-653) using a Cy5 labeled peptide as a probe; made in house; details: SPR, mouse HER2 extracellular domain, 25° C., 1:1 binding model; read-out: moHER2-SPR-ONC KD
Source text: Each protein was immobilized either onto a SA sensorchip (Cytiva, BR-1005-31) or CM5 sensorchip (Cytiva, BR-1005-30) to a density of 800-2000 RU.

mouse HER2 (23-653) [2] = biological target: T1, mouse HER2 (23-653); assay: TR-FRET competition assay for peptide potency, mouse HER2; design: mouse HER2 (23-653) using a Cy5 labeled peptide as a probe; made in house; host or cells: mammalian cells; details: TR-FRET competition with Cy5 labeled peptide probe, 0.1 nM mouse HER2, 24 h incubation; read-out: moHER2 TR-FRET IC50

| Kd (human HER2 (23-652)) [nM] | Kd (mouse HER2 (23-653) [1]) [nM] | IC50 (mouse HER2 (23-653) [2]) [nM] | Compound |
| --- | --- | --- | --- |
| 7.3 | 10 | 15 | CC(=O)NCCCC[C@H]1C(=O)N[C@@H](Cc2c[nH]c3ccc(O)cc23)C(=O)N[C@@H](Cc2c[nH]c3ccccc23)C(=O)N[C@@H](C2CC2)C(=O)N(C)[C@H](C(=O)N(C)[C@@H](Cc2ccc(F)cc2)C(N)=O)CSCC(=O)NC[C@H](NC(C)=O)C(=O)N[C@@H](Cc2ccc(O)cc2)C(=O)N[C@@H](CO)C(=O)N(C)[C@@H](CCc2ccccc2)C(=O)N1C [Example A51, (3R,6S,9S,12S,15S,18S,21S,24S,27S)-9-((1H-indol-3-yl)methyl)-27-acetamido-15-(4-acetamidobutyl)-N-((S)-1-amino-3-(4-fluorophenyl)-1-oxopropan-2-y1)-6-cyclopropyl-12-((5-hydroxy-1H-indol-3-yl)methyl)-24-(4-hydroxybenzyl)-21-(hydroxymethyl)-N,4,16,19-tetramethyl-5,8,11,14,17,20,23,26,30-nonaoxo-18-phenethyl-1-thia-4,7,10,13,16,19,22,25,29-nonaazacyclohentriacontane-3-carboxamide] (Ac-[Dap]YS[NMehPhe][NMeK](Ac)[Trp(5-OH)]W[Gly(cPr)][NMeC][NMePhe(4-F)]-NH2; linker 1-9 via X5) |
| 5.5 | 10 | 7.6 | CC(=O)N[C@H]1CCCC(=O)NC[C@@H](C(=O)N(C)[C@@H](Cc2ccc(F)cc2)C(=O)N[C@@H](CCCCNC(=O)CN2CCN(CC(=O)O)CCN(CC(=O)O)CCN(CC(=O)O)CC2)C(N)=O)N(C)C(=O)[C@H](C2CC2)NC(=O)[C@H](Cc2c[nH]c3ccccc23)NC(=O)[C@H](Cc2c[nH]c3ccc(O)cc23)NC(=O)[C@H](CCCCNC(=O)CC(=O)O)N(C)C(=O)[C@H](CCc2ccccc2)N(C)C(=O)[C@H](CO)NC(=O)[C@H](Cc2ccc(O)cc2)NC1=O [Example C19] |
| 30 | 27 | 53 | CC(=O)N[C@H]1CCCC(=O)NC[C@@H](C(=O)N(C)[C@@H](Cc2ccc(F)cc2)C(N)=O)N(C)C(=O)[C@H](C2CC2)NC(=O)[C@H](Cc2c[nH]c3ccccc23)NC(=O)[C@H](Cc2c[nH]c3ccc(O)cc23)NC(=O)[C@H](CO)N(C)C(=O)[C@H](CCc2ccccc2)N(C)C(=O)[C@H](CO)NC(=O)[C@H](Cc2ccc(O)cc2)NC1=O [Example A29, (3S,6S,9S,12S,15S,18S,21S,24S,27S)-9-((1H-indol-3-yl)methyl)-27-acetamido-N-((S)-1-amino-3-(4-fluorophenyl)-1-oxopropan-2-yl)-6-cyclopropyl-12-((5-hydroxy-1H-indol-3-yl)methyl)-24-(4-hydroxybenzyl)-15,21-bis(hydroxymethyl)-N,4,16,19-tetramethyl-5,8,11,14,17,20,23,26,31-nonaoxo-18-phenethyl-1,4,7,10,13,16,19,22,25-nonaazacyclohentriacontane-3-carboxamide] (Ac-[Aad]YS[NMehPhe][NMeS][Trp(5-OH)]W[Gly(cPr)][NMeDap][NMePhe(4-F)]-NH2; lactam 1-9) |
| 117 | 122 | 430 | CC(=O)N[C@H]1CNC(=O)CSC[C@@H](C(=O)N(C)[C@@H](Cc2ccc(F)cc2)C(N)=O)N(C)C(=O)[C@H](C2CC2)NC(=O)[C@H](Cc2c[nH]c3ccccc23)NC(=O)[C@H](Cc2c[nH]c3ccc(O)cc23)NC(=O)[C@H](CO)N(C)C(=O)[C@H](CCc2ccccc2)N(C)C(=O)[C@H](CO)NC(=O)[C@H](Cc2ccc(O)cc2)NC1=O [Example A50, (3R,6S,9S,12S,15S,18S,21S,24S,27S)-9-((1H-indol-3-yl)methyl)-27-acetamido-N—((S)-1-amino-3-(4-fluorophenyl)-1-oxopropan-2-yl)-6-cyclopropyl-12-((5-hydroxy-1H-indol-3-yl)methyl)-24-(4-hydroxybenzyl)-15,21-bis(hydroxymethyl)-N,4,16,19-tetramethyl-5,8,11,14,17,20,23,26,30-nonaoxo-18-phenethyl-1-thia-4,7,10,13,16,19,22,25,29-nonaazacyclohentriacontane-3-carboxamide] (Ac-[Dap]YS[NMehPhe][NMeS][Trp(5-OH)]W[Gly(cPr)][NMeC][NMePhe(4-F)]-NH2; linker 1-9 via X5) |
